According to patent publication US10000476B2, “Pyridone derivative, pharmaceutical containing the same and methods of use thereof” (KAKEN PHARMACEUTICAL CO., LTD., priority 2011, dated 2018):

Target: TACE (Homo sapiens (Human), UniProt P78536)
Experiment: TACE inhibition test (in vitro)
Format: biochemical
Conditions: fluorescent synthetic substrate, 37° C., 1.5 hours
Method: The nucleotide sequence of TACE has been reported by Moss et al. (Moss, M. L. et al., Nature 1997, 385, 733-736). Accordingly, the cDNA of TACE was obtained according to the prescribed method from THP-1 cells or the like, and then incorporated the cDNA into an expression vector. Next, this vector was transformed into mammalian cells or insect cells, and TACE expression was obtained.
The TACE inhibition test was carried out by measuring TACE activity in the presence and the absence of the test substance using the thus-obtained TACE as an enzyme, and a fluorescent synthetic substrate Nma(N-methylanthranilic acid)-Leu-Ala-Gln-Ala-Val-Arg-Ser-Ser-Lys(Dnp(dinitrophenyl))-D-Arg-NH2 (SEQ ID NO: 1) including the TACE-cleaved sequence of a membrane-bound TNF as a substrate. The TACE inhibition test method is shown below.
Namely, 90 μL of an enzyme solution prepared with an assay buffer A (50 mM tris-hydrochloric acid buffer (pH 7.5) including 200 mM sodium chloride, 5 mM calcium chloride, 10 μM zinc sulfate, and 2 mg/mL bovine serum albumin) and 90 μL of a fluorescent synthetic substrate prepared with an assay buffer B (50 mM tris-hydrochloric acid buffer (pH 7.5) including 200 mM sodium chloride, 5 mM calcium chloride, 10 μM zinc sulfate, and 0.05% PLURONIC F-68) were mixed together, and reacted at 37° C. for 1.5 hours. Enzyme activity was then determined by measuring with a fluorescence intensity meter (Labsystems, Fluoroskan Ascent) at an excitation wavelength of 355 nm and a measurement wavelength of 460 nm.
From the enzyme activity in the presence or the absence of the test substance, the inhibition rate was determined, and the 50% inhibitiory concentration (IC50) of the test substance was calculated.

Chain of TACE (P78536 215-824): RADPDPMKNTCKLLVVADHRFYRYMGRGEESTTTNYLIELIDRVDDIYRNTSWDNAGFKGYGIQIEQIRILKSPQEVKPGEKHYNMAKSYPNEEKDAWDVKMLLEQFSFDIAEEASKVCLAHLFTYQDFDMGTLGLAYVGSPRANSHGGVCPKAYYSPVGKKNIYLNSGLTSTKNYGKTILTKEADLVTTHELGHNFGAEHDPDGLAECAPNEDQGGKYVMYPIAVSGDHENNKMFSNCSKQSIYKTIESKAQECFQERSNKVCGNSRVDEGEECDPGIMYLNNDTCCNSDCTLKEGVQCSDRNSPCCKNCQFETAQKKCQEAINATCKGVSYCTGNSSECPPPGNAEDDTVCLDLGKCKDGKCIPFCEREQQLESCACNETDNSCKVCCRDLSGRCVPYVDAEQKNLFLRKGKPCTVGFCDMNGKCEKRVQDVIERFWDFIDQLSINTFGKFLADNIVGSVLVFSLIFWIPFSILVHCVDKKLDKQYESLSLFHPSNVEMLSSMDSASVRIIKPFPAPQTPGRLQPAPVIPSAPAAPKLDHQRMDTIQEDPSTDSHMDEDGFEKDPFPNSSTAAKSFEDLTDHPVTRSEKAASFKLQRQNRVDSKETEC

SMILES | IC50 [nM]
C=Cc1ccc(C2(Cn3cccc(C)c3=O)NC(=O)NC2=O)cc1 (centres unmarked) [Compound I-43, 5-[(3-methyl-2-oxopyridin-1(2H)-yl)methyl]-5-(4-vinylphenyl)imidazolidine-2,4-dione] | < 100
O=C1NC(=O)C(Cn2cccc(Cl)c2=O)(c2cc3ccccc3o2)N1 (centres unmarked) [Compound I-51, 5-(benzofuran-2-yl)-5-[(3-chloro-2-oxopyridin-1(2H)-yl)methyl]imidazolidine-2,4-dione] | < 100
COc1ccc(C2(Cn3cccc(Br)c3=O)NC(=O)NC2=O)cc1 (centres unmarked) [Compound I-52, 5-[(3-bromo-2-oxopyridin-1(2H)-yl)methyl]-5-(4-methoxyphenyl)imidazolidine-2,4-dione] | < 100
CCc1cccn(CC2(c3ccc(OC)cc3)NC(=O)NC2=O)c1=O (centres unmarked) [Compound I-53, 5-[(3-ethyl-2-oxopyridin-1(2H)-yl)methyl]-5-(4-methoxyphenyl)imidazolidine-2,4-dione] | 100 to 1000
Cc1cccn(CC2(c3cccc(C#CC(C)(C)C)c3)NC(=O)NC2=O)c1=O (centres unmarked) [Compound I-63] | 100 to 1000
Cc1cccn(CC2(c3ccc4c(c3)OCO4)NC(=O)NC2=O)c1=O (centres unmarked) [Compound I-65] | < 100
Cc1cccn(CC2(c3ccc(C4CCCCC4)cc3)NC(=O)NC2=O)c1=O (centres unmarked) [Compound I-66] | < 100
COc1ccc(F)cc1C1(Cn2cccc(C)c2=O)NC(=O)NC1=O (centres unmarked) [Compound I-69] | < 100
Cc1cccn(CC2(c3cccc(C#CCN(C)C)c3)NC(=O)NC2=O)c1=O (centres unmarked) [Compound I-71] | < 100
COc1cccc(-c2ccc(C3(Cn4cccc(C)c4=O)NC(=O)NC3=O)cc2)c1 (centres unmarked) [Compound I-73] | < 100
COc1ccccc1-c1ccc(C2(Cn3cccc(C)c3=O)NC(=O)NC2=O)cc1 (centres unmarked) [Compound I-74] | < 100
Cc1cccn(CC2(c3ccc(-c4ccc(F)cc4)cc3)NC(=O)NC2=O)c1=O (centres unmarked) [Compound I-75] | < 100
Cc1cccn(CC2(c3ccc4c(c3)CCCC4)NC(=O)NC2=O)c1=O (centres unmarked) [Compound I-77] | < 100
Cc1cccn(CC2(c3ccc(OC(F)F)cc3)NC(=O)NC2=O)c1=O (centres unmarked) [Compound I-78] | < 100
Cc1cccn(CC2(c3ccc(OC(F)(F)F)cc3)NC(=O)NC2=O)c1=O (centres unmarked) [Compound I-79] | < 100
COc1cccc(Oc2ccc(C3(Cn4cccc(C)c4=O)NC(=O)NC3=O)cc2)c1 (centres unmarked) [Compound I-83] | < 100
Cc1cccn(CC2(c3ccc(Oc4ccccc4)c(F)c3)NC(=O)NC2=O)c1=O (centres unmarked) [Compound I-87] | < 100
Cc1cccn(CC2(c3ccc(C(F)(F)F)cc3)NC(=O)NC2=O)c1=O (centres unmarked) [Compound I-89] | < 100
Cc1cccn(CC2(c3cccc(-c4ccncc4)c3)NC(=O)NC2=O)c1=O (centres unmarked) [Compound I-95] | < 100
Cc1cccn(CC2(c3cccc(-c4ccccc4)c3)NC(=O)NC2=O)c1=O (centres unmarked) [Compound I-96] | < 100
Cc1cccn(CC2(c3ccc(Oc4ccc(F)cc4F)cc3)NC(=O)NC2=O)c1=O (centres unmarked) [Compound I-97] | < 100
Cc1cccn(CC2(c3ccc(Oc4ccc(F)c(F)c4)cc3)NC(=O)NC2=O)c1=O (centres unmarked) [Compound I-98] | < 100
Cc1cccn(CC2(c3ccc(Oc4cccnc4)cc3)NC(=O)NC2=O)c1=O (centres unmarked) [Compound I-101] | < 100
Cc1cccn(CC2(c3ccc(Sc4ccccc4)c(F)c3)NC(=O)NC2=O)c1=O (centres unmarked) [Compound I-103] | < 100
Cc1cccn(CC2(c3ccc(Oc4ccccc4F)c(F)c3)NC(=O)NC2=O)c1=O (centres unmarked) [Compound I-104] | < 100

The remaining lines, values ahead:

IC50 [nM] | SMILES
< 100 | Cc1ccccc1Oc1ccc(C2(Cn3cccc(C)c3=O)NC(=O)NC2=O)cc1 (centres unmarked) [Compound I-35, 5-[(3-methyl-2-oxopyridin-1(2H)-yl)methyl]-5-[4-(o-tolyloxy)phenyl]imidazolidine-2,4-dione]
< 100 | Cc1cc(C2(Cn3cccc(C)c3=O)NC(=O)NC2=O)ccc1OC1CCCC1 (centres unmarked) [Compound I-39, 5-[4-(cyclopentyloxy)-3-methylphenyl]-5-[(3-methyl-2-oxopyridin-1(2H)-yl)methyl]imidazolidine-2,4-dione]
< 100 | Cc1cccn(CC2(c3ccc(-c4nn[nH]n4)cc3)NC(=O)NC2=O)c1=O (centres unmarked) [Compound I-42, 5-[4-(2H-tetrazol-5-yl)phenyl]-5-[(3-methyl-2-oxopyridin-1(2H)-yl)methyl]imidazolidine-2,4-dione]
< 100 | Cc1cccn(CC2(c3cc(F)c(F)c(F)c3)NC(=O)NC2=O)c1=O (centres unmarked) [Compound I-44, 5-[(3-methyl-2-oxopyridin-1(2H)-yl)methyl]-5-(3,4,5-trifluorophenyl)imidazolidine-2,4-dione]
< 100 | CCCc1ccc(C2(Cn3cccc(C)c3=O)NC(=O)NC2=O)cc1 (centres unmarked) [Compound I-45, 5-[(3-methyl-2-oxopyridin-1(2H)-yl)methyl]-5-(4-propylphenyl)imidazolidine-2,4-dione]
< 100 | O=C1NC(=O)C(Cn2ccccc2=O)(c2ccccc2)N1 (centres unmarked) [Compound I-46, 5-[(2-oxopyridin-1(2H)-yl)methyl]-5-phenylimidazolidine-2,4-dione]
< 100 | COc1ccc(C2(Cn3ccccc3=O)NC(=O)NC2=O)cc1 (centres unmarked) [Compound I-47, 5-(4-methoxyphenyl)-5-[(2-oxopyridin-1(2H)-yl)methyl]imidazolidine-2,4-dione]
< 100 | O=C1NC(=O)C(Cn2cccc(F)c2=O)(c2ccc(F)cc2)N1 (centres unmarked) [Compound I-48, 5-[(3-fluoro-2-oxopyridin-1(2H)-yl)methyl]-5-(4-fluorophenyl)-imidazolidine-2,4-dione]
< 100 | O=C1NC(=O)C(Cn2cccc(F)c2=O)(c2ccc(-c3ccccc3)cc2)N1 (centres unmarked) [Compound I-49, 5-([1,1′-biphenyl]-4-yl)-5-[(3-fluoro-2-oxopyridin-1(2H)-yl)methyl]imidazolidine-2,4-dione]
< 100 | O=C1NC(=O)C(Cn2cccc(Cl)c2=O)(c2ccccc2)N1 (centres unmarked) [Compound I-50, 5-[(3-chloro-2-oxopyridin-1(2H)-yl)methyl]-5-phenylimidazolidine-2,4-dione]
100 to 1000 | Cc1cccn(CC2(c3cccc(O)c3)NC(=O)NC2=O)c1=O (centres unmarked) [Compound I-54, 5-(3-hydroxyphenyl)-5-[(3-methyl-2-oxopyridin-1(2H)-yl)methyl]imidazolidine-2,4-dione]
< 100 | Cc1cccn(CC2(c3ccncc3)NC(=O)NC2=O)c1=O (centres unmarked) [Compound I-55]
< 100 | Cc1cccn(CC2(c3ccc4ccccc4c3)NC(=O)NC2=O)c1=O (centres unmarked) [Compound I-56]
< 100 | Cc1cccn(CC2(c3cccc(Br)c3)NC(=O)NC2=O)c1=O (centres unmarked) [Compound I-57]
< 100 | Cc1cccn(CC2(c3cccc(OCc4ccccc4)c3)NC(=O)NC2=O)c1=O (centres unmarked) [Compound I-58]
< 100 | Cc1cccn(CC2(c3ccc4c(c3)OCCO4)NC(=O)NC2=O)c1=O (centres unmarked) [Compound I-59]
100 to 1000 | COc1ccccc1C1(Cn2cccc(C)c2=O)NC(=O)NC1=O (centres unmarked) [Compound I-60]

IC50 [nM] | SMILES
100 to 1000 | Cc1cccn(CC2(c3ccc(F)cc3F)NC(=O)NC2=O)c1=O (centres unmarked) [Compound I-61]
< 100 | Cc1cccn(CC2(c3cccc(OC(F)(F)F)c3)NC(=O)NC2=O)c1=O (centres unmarked) [Compound I-67]
100 to 1000 | Cc1cccn(CC2(c3ccccc3OCc3ccccc3)NC(=O)NC2=O)c1=O (centres unmarked) [Compound I-68]
100 to 1000 | COc1cc(C)c(Cl)cc1C1(Cn2cccc(C)c2=O)NC(=O)NC1=O (centres unmarked) [Compound I-70]
< 100 | COc1ccc(-c2ccc(C3(Cn4cccc(C)c4=O)NC(=O)NC3=O)cc2)cc1 (centres unmarked) [Compound I-72]
100 to 1000 | COc1ccc(C)cc1C1(Cn2cccc(C)c2=O)NC(=O)NC1=O (centres unmarked) [Compound I-76]
< 100 | Cc1cccc(Oc2ccc(C3(Cn4cccc(C)c4=O)NC(=O)NC3=O)cc2)c1 (centres unmarked) [Compound I-80]
< 100 | COc1ccc(Oc2ccc(C3(Cn4cccc(C)c4=O)NC(=O)NC3=O)cc2)cc1 (centres unmarked) [Compound I-81]
< 100 | Cc1cccn(CC2(c3ccc(Oc4ccc(Cl)cc4)cc3)NC(=O)NC2=O)c1=O (centres unmarked) [Compound I-82]
< 100 | Cc1cccn(CC2(c3ccc(OCc4ccc(F)cc4)cc3)NC(=O)NC2=O)c1=O (centres unmarked) [Compound I-88]
< 100 | Cc1noc(C)c1-c1ccc(C2(Cn3cccc(C)c3=O)NC(=O)NC2=O)cc1 (centres unmarked) [Compound I-90]
< 100 | COc1ccncc1-c1ccc(C2(Cn3cccc(C)c3=O)NC(=O)NC2=O)cc1 (centres unmarked) [Compound I-91]
< 100 | Cc1cccn(CC2(c3ccc(-c4ccccn4)cc3)NC(=O)NC2=O)c1=O (centres unmarked) [Compound I-92]
< 100 | Cc1cccn(CC2(c3cccc(-c4ccc(F)cn4)c3)NC(=O)NC2=O)c1=O (centres unmarked) [Compound I-93]
< 100 | Cc1cccn(CC2(c3cccc(-c4ccccn4)c3)NC(=O)NC2=O)c1=O (centres unmarked) [Compound I-94]
< 100 | Cc1cccn(CC2(c3ccc(Oc4cc(F)cc(F)c4)cc3)NC(=O)NC2=O)c1=O (centres unmarked) [Compound I-99]
< 100 | Cc1cccn(CC2(c3ccc(Oc4cccc(C(F)(F)F)c4)cc3)NC(=O)NC2=O)c1=O (centres unmarked) [Compound I-100]
